Results taken from patent US5853699A, “Use of tetra azacycle complexes as x-ray diagnostic agents for the liver and gallbladder” (priority 1995, dated 1998).
Values joined by “and” are separate entries in the source; they are usually repeats but may differ in a detail not shown here. Equal entries are not always repeated. Where two headings read alike, the source gives them in different places.

How the values were obtained:
[1] = density values of samples measured in a water phantom in a computer tomograph (137 kV, 100 mA); type: physicochemical
Method: 3,6,9-Triaza-3,6,9-tris-(carboxymethyl)-4-(4-ethoxybenzyl)-undecanedioic acid
Disodium salt was complexed with different X-ray-absorbing metal ions and then in the case of differing concentration, the density values of the samples were measured in a water phantom since it approximately corresponded in dimensions to those of a human abdomen.

mice = test: acute toxicity (LD50) after one-time intravenous administration to mice; type: in vivo, mouse (NMRI (SPF)); conditions: mice (NMRI), 2 ml/minutes, deaths up to 7 days
Method: Study of acute toxicity (LD50) after one-time intravenous administration to mice
The contrast medium to be tested was administered to the mice in individual restraining cages (strain: NMRI (SPF); cultivator: Schering; average weight: 20 g; same sex distribution) into one of the caudal veins at a rate of 2 ml/minutes and at different dosage levels. The number of animals that died up to a fixed time was determined (3 hours, 24 hours, 3 days and 7 days).

healthy liver parenchyma = test: density enhancement of the healthy liver parenchyma in CT after infusion, patients with liver metastases (Example 16); type: in vivo, human; conditions: 0.35 mmol/kg, 0.25 molar solution, individual patients 1-5 (one line per patient), disodium salt
Method: Density enhancement of the healthy liver parenchyma 10 and 60 minutes after infusion of a 0.25 molar solution of the gadolinium(III) complex of the 3,6,9-triaza-3,6,9-tris(carboxymethyl)-4-(4-ethoxybenzyl)-undecanedioic acid disodium salt (Gd-EOB-DTPA, described in Example 8c of EP 0405704) in the case of 5 human patients with liver metastases in a dose of 0.35 mmol/kg in Houndsfield units (HU). This dose corresponds to about 16 g of the complex per 70 kg of patient.

liver metastases = test: liver CT of human patients with known liver metastases (Example 19); type: in vivo
Method: Gd-EOB-DTPA ([…]) was administered intravenously in an intravenous drip in the arm vein. The infusion time was 20 minutes for the dosages of 0.2 and 0.35 mmol/kg and 30 minutes for the maximum dose of 0.5 mmol/kg. […] Exclusion criteria for the patients were: […] The entire liver was measured within 20-30 seconds of a pause in breathing. The table feed rate was 8 mm/sec, the collimation 8 mm. Using a basis of pre-contrast and post-contrast images, two independent observers evaluated the number and size of the metastases qualitatively (excellent, good, moderate, minimal, no improvement) and quantitatively (measurement of the Houndsfield units).

[2] = compatibility (overall condition, vital parameters, laboratory analysis of serum and urine) in patients (Example 19); type: in vivo, human
Method: Fifteen human patients with known liver metastases were examined in the liver-CT 10 minutes, 60 minutes and (N=5) 120 minutes after intravenous infusion of 0.2, 0.35 or 0.5 mmol/kg of Gd-EOB-DTPA (see Example 16).
Gd-EOB-DTPA ([…]) was administered intravenously in an intravenous drip in the arm vein. The infusion time was 20 minutes for the dosages of 0.2 and 0.35 mmol/kg and 30 minutes for the maximum dose of 0.5 mmol/kg.
The compatibility of Gd-EOB-DTPA was determined by determining the overall condition, the recording of vital parameters and a laboratory analysis of serum and urine parameters.

liver [3] = conditions: human, dose corresponding to 360 mg of iodine/kg; cited from earlier work
liver [4] = conditions: monkey; cited from earlier work
liver [5] = conditions: dog; cited from earlier work
liver [6] = conditions: mouse; cited from earlier work
liver [7] = conditions: cited from earlier work; for concentration in the liver (fold), at 50 μg of iodine/ml: 50 μg of iodine/ml of plasma; for concentration in the liver versus plasma, at 500 μg of iodine/ml: 500 μg of iodine/ml of plasma
liver [8] = conditions: human, maximum compatible dose corresponding to about 7 g of iodine/70 kg; cited from earlier work
[9] = humans; cited from earlier work
[10] = 0.2, 0.35 or 0.5 mmol/kg i.v. infusion

CCOc1ccc(CC(CN(CCN(CC(=O)[O-])CC(=O)[O-])CC(=O)[O-])N(CC(=O)[O-])CC(=O)[O-])cc1.[Dy+3].[Na+].[Na+] (stereo not drawn) [Dy]
density (HU ± SD), 50 mmol/L [1]: 226 HU | density (HU ± SD), 500 mmol/L [1]: 1840 HU

CCOc1ccc(CC(CN(CCN(CC(=O)[O-])CC(=O)[O-])CC(=O)[O-])N(CC(=O)[O-])CC(=O)[O-])cc1.[Er+3].[Na+].[Na+] (stereo not drawn) [Er]
density (HU ± SD), 50 mmol/L [1]: 254 HU | density (HU ± SD), 500 mmol/L [1]: 1955 HU

CCOc1ccc(CC(CN(CC(=O)[O-])CC(Cc2ccc(OCC)cc2)N(CC(=O)[O-])CC(=O)[O-])N(CC(=O)[O-])CC(=O)[O-])cc1.[Na+].[Na+].[Yb+3] (stereo not drawn) [Example 4e, Ytterbium complex of the disodium salt of 3,6,9-triaza-3,6,9-tris-(carboxymethyl)-4,8-bis-(4-ethoxybenzyl)-undecanedioic acid]
LD50 (mice): approximately 15 mmol/kg of body weight

CCOc1ccc(CC(CN(CCN(CC(=O)[O-])CC(=O)[O-])CC(=O)[O-])N(CC(=O)[O-])CC(=O)[O-])cc1.[Gd+3].[Na+].[Na+] (stereo not drawn) [Gd-EOB-DTPA, gadolinium(III) complex of the 3,6,9-triaza-3,6,9-tris(carboxymethyl)-4-(4-ethoxybenzyl)-undecanedioic acid disodium salt]
Density enhancement of the healthy liver parenchyma, 10 minutes p. inf. (healthy liver parenchyma; 10 minutes after infusion): 19 HU and 12 HU and 10 HU and 18 HU and 15 HU | Density enhancement of the healthy liver parenchyma, 60 minutes p. inf. (healthy liver parenchyma; 60 minutes after infusion): 26 HU and 25 HU and 17 HU and 32 HU | density (HU ± SD), 50 mmol/L [1]: 218 HU | density (HU ± SD), 500 mmol/L [1]: 1680 HU | visualization of the metastases, all dose groups (liver metastases; 0.2, 0.35 and 0.5 mmol/kg): improved | CT density of the healthy liver (liver metastases; [10]): dose-dependent increase | CT density of the metastases (liver metastases; [10]): unchanged | visualization of the metastases, two upper dose groups (liver metastases; 0.35 and 0.5 mmol/kg): excellent | visualization of the gallbladder and the bile ducts (liver metastases; after i.v. infusion): possible | additional metastases discovered, on the average (liver metastases; maximum dose (0.5 mmol/kg)): two | average size of the smallest metastases found (liver metastases; maximum dose, decreased from 20.3 mm): 16.6 mm | diameter of additional lesion detected (liver metastases; one patient, left lobe of the liver, previously not found): 7 mm | summary as liver or gallbladder contrast medium for CT (liver metastases; summary statement): well-tolerated and effective | other side effects ([2]; 0.2, 0.35 or 0.5 mmol/kg): nausea and a sensation of pressure in the epigastric region | general compatibility ([2]; 0.2, 0.35 or 0.5 mmol/kg i.v. infusion, 15 patients): good | mild or moderate side effects observed (number) ([2]; 0.2, 0.35 or 0.5 mmol/kg, 15 patients): four | burning sensation at the infusion site or retrograde therefrom (cases) ([2]; persisted for a few seconds or minutes): two | slight increases of aspartate transferase and alaninamino transferase (patients) ([2]; probably caused by the liver metastases): three | evaluation of the laboratory parameters ([2]; serum and urine parameters): no precise trend

CCOc1ccc(CC(CN(CCN(CC(=O)[O-])CC(=O)[O-])CC(=O)[O-])N(CC(=O)[O-])CC(=O)[O-])cc1.[Ho+3].[Na+].[Na+] (stereo not drawn) [Ho]
density (HU ± SD), 50 mmol/L [1]: 221 HU | density (HU ± SD), 500 mmol/L [1]: 1890 HU

CNC(=O)c1c(I)c(NC(=O)COCC(=O)N(C)c2c(I)cc(I)c(C(=O)O)c2I)c(I)c(C(=O)O)c1I [SH L 433]
enhancement of the liver (liver [3]): < 10 HU | enhancement of the liver (liver [4]): > 40 HU | enhancement of the liver (liver [5]): > 40 HU | enhancement of the liver (liver [6]): > 40 HU

CCOc1ccc(CC(CN(CCN(CC(=O)[O-])CC(=O)[O-])CC(=O)[O-])N(CC(=O)[O-])CC(=O)[O-])cc1.[Na+].[Na+].[Tb+3] (stereo not drawn) [Tb]
density (HU ± SD), 50 mmol/L [1]: 228 HU | density (HU ± SD), 500 mmol/L [1]: 1760 HU

CCOc1ccc(CC(CN(CCN(CC(=O)[O-])CC(=O)[O-])CC(=O)[O-])N(CC(=O)[O-])CC(=O)[O-])cc1.[Na+].[Na+].[Yb+3] (stereo not drawn) [Yb, Ytterbium complex of the disodium salt of 3,6,9-triaza-3,6,9-tris-(carboxymethyl)-4-(4-ethoxybenzyl)-undecanedioic acid]
density (HU ± SD), 50 mmol/L [1]: 252 HU | density (HU ± SD), 500 mmol/L [1]: 1980 HU

O=C(COCC(=O)Nc1c(I)cc(I)c(C(=O)O)c1I)Nc1c(I)cc(I)c(C(=O)O)c1I [ioglycamate]
concentration in the liver (fold), at 5 μg of iodine per ml of plasma (liver [7]): 5 -fold | concentration in the liver (fold), at 50 μg of iodine/ml (liver [7]): ~2 -fold | concentration in the liver versus plasma, at 500 μg of iodine/ml (liver [7]): considerably lower than in the plasma

O=C(COCCOCCOCC(=O)Nc1c(I)cc(I)c(C(=O)O)c1I)Nc1c(I)cc(I)c(C(=O)O)c1I [iotroxinate]
enhancement in the liver (liver [8]): 15 HU | excreted via the bile ducts [9]: about 90% | concentration in the liver (fold), at 5 μg of iodine per ml of plasma (liver [7]): 5 -fold | concentration in the liver (fold), at 50 μg of iodine/ml (liver [7]): ~2 -fold | concentration in the liver versus plasma, at 500 μg of iodine/ml (liver [7]): considerably lower than in the plasma
